Measurements reported in ChEMBL document CHEMBL1201862, “PubChem BioAssay data set” (2004).
Calls of active or inactive are those of the source.

Key:
Type in all cases: functional
[1] = target: T1, Sphingosine 1-phosphate receptor 4 (Homo sapiens, UniProt O95977); assay: Late-stage fluorescence-based dose-response cell-based counterscreen assay to identify agonists of the Sphingosine 1-Phosphate Receptor 3 (S1P3): Sphingosine 1-Phosphate Receptor 4 (S1P4) agonist assay.
T1 sequence (O95977 whole entry): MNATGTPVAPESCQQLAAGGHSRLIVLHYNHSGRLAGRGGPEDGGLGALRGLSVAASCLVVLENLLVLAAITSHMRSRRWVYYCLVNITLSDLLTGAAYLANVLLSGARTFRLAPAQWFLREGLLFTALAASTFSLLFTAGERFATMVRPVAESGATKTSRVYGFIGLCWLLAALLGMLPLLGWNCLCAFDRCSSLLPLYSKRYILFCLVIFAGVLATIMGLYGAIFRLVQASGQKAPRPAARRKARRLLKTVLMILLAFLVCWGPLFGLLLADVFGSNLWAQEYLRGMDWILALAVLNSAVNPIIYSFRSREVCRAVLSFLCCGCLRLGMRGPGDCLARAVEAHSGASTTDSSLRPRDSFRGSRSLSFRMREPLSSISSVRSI

[2] = target: Sphingosine 1-phosphate receptor 2 (Homo sapiens, UniProt O95136); assay: Late-stage fluorescence-based dose-response cell-based counterscreen assay to identify agonists of the Sphingosine 1-Phosphate Receptor 3 (S1P3): Sphingosine 1-Phosphate Receptor 2 (S1P2) agonist assay.
Sequence of Sphingosine 1-phosphate receptor 2 (O95136 whole entry): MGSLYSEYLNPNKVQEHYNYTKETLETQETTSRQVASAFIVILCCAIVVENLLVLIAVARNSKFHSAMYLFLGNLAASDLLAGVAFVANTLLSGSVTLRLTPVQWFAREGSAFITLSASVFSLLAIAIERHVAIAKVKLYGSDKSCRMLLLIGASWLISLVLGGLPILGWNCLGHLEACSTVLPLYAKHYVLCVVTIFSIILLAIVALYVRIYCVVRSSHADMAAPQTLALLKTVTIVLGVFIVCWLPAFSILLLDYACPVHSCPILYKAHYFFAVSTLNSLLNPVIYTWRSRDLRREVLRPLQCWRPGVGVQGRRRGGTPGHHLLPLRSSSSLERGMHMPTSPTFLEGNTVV

Prothrombin = Prothrombin (Bos taurus, UniProt P00735); assay: thrombin inhibition, dose response, biochemical, fluorescence polarization, uHTS hits (AID 602369)
[3] = target: 26S proteasome non-ATPase regulatory subunit 14 (Homo sapiens, UniProt O00487); assay: inhibition of proteasome subunit RPN11 – biochemical, fluorescence polarization, uHTS hits, confirmation (AID 602368)
Sequence of 26S proteasome non-ATPase regulatory subunit 14 (O00487 whole entry): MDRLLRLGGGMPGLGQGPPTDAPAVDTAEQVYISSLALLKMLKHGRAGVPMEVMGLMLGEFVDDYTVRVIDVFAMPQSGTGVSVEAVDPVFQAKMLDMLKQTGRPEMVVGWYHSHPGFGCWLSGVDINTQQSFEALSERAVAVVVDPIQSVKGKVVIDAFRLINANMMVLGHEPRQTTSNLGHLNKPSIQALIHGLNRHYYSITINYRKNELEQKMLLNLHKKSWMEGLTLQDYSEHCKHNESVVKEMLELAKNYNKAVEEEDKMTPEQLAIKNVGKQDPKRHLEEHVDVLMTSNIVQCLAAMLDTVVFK

[4] = target: 72 kDa type IV collagenase (Homo sapiens, UniProt P08253); assay: Dose Response validation of uHTS RPN11 inhibitor hits using a MMP-2 Fluorescence assay.
Sequence of 72 kDa type IV collagenase (P08253 whole entry): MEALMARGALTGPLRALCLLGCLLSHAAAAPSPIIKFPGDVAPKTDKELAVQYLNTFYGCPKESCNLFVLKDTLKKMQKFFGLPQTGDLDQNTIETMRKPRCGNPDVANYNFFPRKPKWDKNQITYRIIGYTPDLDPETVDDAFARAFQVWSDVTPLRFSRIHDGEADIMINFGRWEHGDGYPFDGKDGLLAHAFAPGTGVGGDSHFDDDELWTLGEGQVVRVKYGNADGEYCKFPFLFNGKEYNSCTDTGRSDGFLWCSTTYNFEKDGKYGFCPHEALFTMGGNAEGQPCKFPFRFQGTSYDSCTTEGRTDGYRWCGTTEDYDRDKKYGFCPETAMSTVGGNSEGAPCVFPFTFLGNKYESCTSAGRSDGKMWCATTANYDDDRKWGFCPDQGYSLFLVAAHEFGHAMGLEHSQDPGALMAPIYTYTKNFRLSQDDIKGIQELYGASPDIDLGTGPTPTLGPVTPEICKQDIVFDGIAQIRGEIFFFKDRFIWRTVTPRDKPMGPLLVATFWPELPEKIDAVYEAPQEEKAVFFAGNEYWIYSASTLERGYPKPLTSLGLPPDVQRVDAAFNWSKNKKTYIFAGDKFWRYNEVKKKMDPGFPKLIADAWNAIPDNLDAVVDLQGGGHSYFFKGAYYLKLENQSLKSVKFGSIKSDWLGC

[5] = target: T2, V-type proton ATPase subunit c' (Saccharomyces cerevisiae S288c, UniProt P32842); assay: Dose Response of Small Molecules that Regulate V-ATPase Proton Transport in Yeast using pHLuorin, Powder Set1.; conditions: read-out: EC50_MICROM
T2 sequence (P32842 whole entry): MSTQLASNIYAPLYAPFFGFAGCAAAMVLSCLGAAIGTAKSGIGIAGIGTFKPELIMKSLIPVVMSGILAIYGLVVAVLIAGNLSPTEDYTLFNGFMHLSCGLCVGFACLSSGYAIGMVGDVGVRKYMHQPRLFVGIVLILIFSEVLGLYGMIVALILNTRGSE

[6] = target: T2, V-type proton ATPase subunit c'; assay: Dose Response with BCECF Assay for V-ATPase inhibitors that increase vacuolar pH, Powder Set 1.; conditions: read-out: EC50_MICROM
Aurora kinase B = Aurora kinase B (Homo sapiens, UniProt Q96GD4)
Sequence of Aurora kinase B (Q96GD4 whole entry): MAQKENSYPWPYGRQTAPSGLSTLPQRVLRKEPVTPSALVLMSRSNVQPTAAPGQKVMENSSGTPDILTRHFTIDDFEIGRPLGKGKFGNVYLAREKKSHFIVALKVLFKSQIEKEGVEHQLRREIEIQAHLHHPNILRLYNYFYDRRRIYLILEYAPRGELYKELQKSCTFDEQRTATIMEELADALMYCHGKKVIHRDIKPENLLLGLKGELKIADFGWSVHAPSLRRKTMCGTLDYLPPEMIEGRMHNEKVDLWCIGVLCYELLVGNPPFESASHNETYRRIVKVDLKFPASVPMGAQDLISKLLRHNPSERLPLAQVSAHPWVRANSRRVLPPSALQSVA

[7] = target: Serine/threonine-protein kinase BRSK1 (Homo sapiens, UniProt Q8TDC3);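 further: measured within a kinome-wide kinase panel, with the target listed as KIAA1811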
Sequence of Serine/threonine-protein kinase BRSK1 (Q8TDC3 whole entry): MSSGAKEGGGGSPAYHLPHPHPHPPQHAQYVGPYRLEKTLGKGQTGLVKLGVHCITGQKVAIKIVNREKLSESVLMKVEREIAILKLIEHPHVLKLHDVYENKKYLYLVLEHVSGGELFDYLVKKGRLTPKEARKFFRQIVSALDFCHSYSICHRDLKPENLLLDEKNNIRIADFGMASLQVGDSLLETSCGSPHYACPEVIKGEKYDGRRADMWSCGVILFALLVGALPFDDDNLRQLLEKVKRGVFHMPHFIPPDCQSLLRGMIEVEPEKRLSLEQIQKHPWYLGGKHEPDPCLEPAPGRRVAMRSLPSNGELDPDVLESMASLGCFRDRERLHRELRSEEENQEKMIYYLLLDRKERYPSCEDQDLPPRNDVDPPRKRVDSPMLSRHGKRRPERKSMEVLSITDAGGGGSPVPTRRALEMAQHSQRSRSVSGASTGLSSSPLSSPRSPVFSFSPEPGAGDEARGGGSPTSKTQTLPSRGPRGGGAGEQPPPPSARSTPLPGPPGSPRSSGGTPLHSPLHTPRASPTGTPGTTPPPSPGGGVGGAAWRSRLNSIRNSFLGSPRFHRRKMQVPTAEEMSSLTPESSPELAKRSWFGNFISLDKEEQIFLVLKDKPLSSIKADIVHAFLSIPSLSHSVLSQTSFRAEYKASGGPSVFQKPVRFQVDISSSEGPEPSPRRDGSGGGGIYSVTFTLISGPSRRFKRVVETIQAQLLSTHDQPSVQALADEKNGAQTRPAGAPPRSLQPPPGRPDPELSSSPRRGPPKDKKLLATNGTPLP

**Q.** Which EC50 [1] does the source give for `O=C(c1cc(C2CC2)on1)N(C1CCCCC1)C1CCCC1` here?
**A.** > 50 µM (inactive)

**Q.** And the EC50 [2]?
**A.** > 50 µM (inactive)

**Q.** How did the IC50 (Prothrombin) turn out when `COc1cc(NC(=O)CCn2c(=S)[nH]c3ccccc3c2=O)cc(OC)c1OC` was run?
**A.** > 100 µM (inactive)

**Q.** And the IC50 [3]?
**A.** 74.1 µM (active)

**Q.** What about the IC50 [4] of the same compound?
**A.** 4.5 µM (active)

**Q.** Which results are given for `O=C(c1ccc([N+](=O)[O-])o1)N1CCN(c2ccc(C(F)(F)F)cn2)CC1`?
**A.** EC50 [5]: 9.82 µM (active); EC50 [6]: 1.59 µM (active)

**Q.** For `CCc1cccc2c1n(CC)c(=N)n2CC(=O)c1ccc(Br)cc1`, which Ki (Aurora kinase B) is on record?
**A.** 2.51 µM (active)

**Q.** What about the Ki [7] of the same compound?
**A.** 2 µM (active)
